This note sets out measurements from patent US20220009918A1, “Chemical Compounds” (GlaxoSmithKline Intellectual Property Development Limited, priority 2018, published 2022).

T1 sequence (O60760 whole entry): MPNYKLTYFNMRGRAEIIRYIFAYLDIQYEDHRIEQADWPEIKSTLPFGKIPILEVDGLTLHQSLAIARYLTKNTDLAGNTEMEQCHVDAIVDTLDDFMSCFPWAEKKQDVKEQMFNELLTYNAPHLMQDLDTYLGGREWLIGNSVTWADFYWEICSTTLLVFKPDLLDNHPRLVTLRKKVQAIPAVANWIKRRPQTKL

One experiment has as its target T1, human H-PGDS (Homo sapiens, UniProt O60760).
T1 construct: Full length human H-PGDS cDNA (Invitrogen Ultimate ORF IOH13026) was amplified by PCR; 6-His (N); TEV protease cleavage site (N); made in house; host or cells: E. coli BL21 (DE3*) for H-PGDS; Sf9 insect cells (baculovirus) for COX-2
Briefly: H-PGDS RapidFire high throughput mass spectrometry assay. Type of experiment: biochemical. The conditions noted are these: inhibition of conversion of PGH2 to PGD2 by H-PGDS. The procedure: H-PGDS RapidFire™ High Throughput Mass Spectrometry Assay
The H-PGDS RapidFire™ mass spectrometric assay monitors conversion of prostaglandin H2 (PGH2) to prostaglandin D2 (PGD2) by haematopoietic prostaglandin D synthase (H-PGDS). In the assay format described here, the substrate (PGH2) is formed in situ by the action of cyclooxygenase-2 on arachidonic acid. This first step is set up to be fast, and generates a burst of PGH2 at ˜10 μM. The PGH2 is then further converted to PGD2 by the H-PGDS enzyme. […] Plates are then read on the RapidFire™ high throughput solid phase extraction system (Agilent) which incorporates a solid phase extraction step coupled to a triple quadrupole mass spectrometer (AB SCIEX). Relative levels of PGD2 and PGF2α, which acts as a surrogate for substrate, are measured and a percent conversion calculated. Inhibitors are characterised as compounds which lower the conversion of PGH2 to PGD2.
Full length human H-PGDS cDNA (Invitrogen Ultimate ORF IOH13026) was amplified by PCR with the addition of a 5′ 6-His tag and TEV protease cleavage site. The PCR product was digested with NdeI and XhoI and ligated into pET22b+ (Merck Novagen®). Expression was carried out in E. coli strain BL21 (DE3*) using auto-induction Overnight Express™ Instant TB medium (Merck Novagen®) supplemented with 1% glycerol. The culture was first grown at 37° C. and the temperature was reduced to 25° C. when OD600 reached 2.0. Cells were harvested by centrifugation after a further 18 hours. 10 g of E. coli cell pellet was suspended to a total volume of 80 mL in lysis buffer (20 mM Tris-Cl pH 7.5, 300 mM NaCl, 20 mM imidazole, 5 mM p-mercaptoethanol, 10% glycerol). 1 mg/mL protease inhibitors (Protease Inhibitor Cocktail Set III, Merck Calbiochem®) and 1 mg/mL lysozyme were added to the cell suspension. The suspension was then sonicated for 5 min (UltraSonic Processor VCX 750, Cole-Parmer Instrument Co.) with a micro probe (50% amplitude, 10 sec on/off) and then centrifuged at 100,000 g for 90 minutes (at 4° C.). The supernatant was loaded onto a Ni-NTA HiTrap column (5 mL, GE Healthcare, pre-equilibrated in lysis buffer). The column was washed with 10 column volumes of lysis buffer and eluted with lysis buffer containing 500 mM imidazole. The pooled protein peak fractions were concentrated using a 10 kDa centrifugal filter at 3500 g and 4° C. (Amicon Ultra-15 centrifugal filter unit with Ultracel-10 membrane from Millipore). Further purification of the concentrated protein was carried out using gel filtration chromatography on a HiLoad 26/600 Superdex 75 preparative grade column (GE Healthcare Life Sciences) using 50 mM Tris pH 7.5, 50 mM NaCl, 1 mM dithiothreitol, 1 mM MgCl2. Fractions containing the protein were pooled, concentrated as described above, and stored at −80° C.
The full length human COX-2 gene (accession number L15326) was amplified by PCR to generate an EcoRI—HindIII fragment containing an in-frame FLAG tag. This was subcloned into pFastBac 1 (Invitrogen). The COX-2 FLAG plasmid was recombined into the baculovirus genome according to the BAC-to-BAC protocol described by Invitrogen. Transfection into Spodoptera frugiperda (Sf9) insect cells was performed using Cellfectin (Invitrogen), according to the manufacturer's protocol. Super Sf9 cells were cultured in EX420 media (SAFC Biosciences) to a density of approximately 1.5×10^6 cells/mL within a wave bioreactor. Recombinant virus was added at a Multiplicity of Infection (MOI) of 5 and the culture was allowed to continue for 3 days. Cells were harvested using a continuous feed centrifuge run at 2500 g at a rate of approximately 2 L/min with cooling. The resultant cell slurry was re-centrifuged in pots (2500 g, 20 min, 4° C.) and the cell paste was stored at −80° C. […]
With `C[C@H]1CNC(=O)[C@H]1NC(=O)c1cnc(-c2cc(F)cc(Cl)c2)s1` (racemic) [Example 74, Racemic cis-2-(3-Chloro-5-fluorophenyl)-N-(4-methyl-2-oxopyrrolidin-3-yl)thiazole-5-carboxamide], the “Potency Range (mean pIC50)” value is “*** (*** = pIC50 7.00-7.99)”.

The same experiment, now with this note: inhibition of conversion of PGH2 to PGD2 by H-PGDS; mean pIC50; read-out: Potency Range (mean pIC50) (converted).
For `O=C(NN1CCNC1=O)c1cnc(-c2cc(F)cc(Cl)c2)s1` [Example 79, 2-(3-Chloro-5-fluorophenyl)-N-(2-oxoimidazolidin-1-yl)thiazole-5-carboxamide], the IC50 is 10.2 to 100 nM.
Regarding `O=C(NC1CCNC1=O)c1cnc(-c2cccc(Cl)c2)s1` (racemic) [Example 2, Racemic 2-(3-Chlorophenyl)-N-(2-oxopyrrolidin-3-yl)thiazole-5-carboxamide], the IC50 was 10.2 to 100 nM.
`CN1CC[C@H](NC(=O)c2cnc(-c3cc(F)cc(Cl)c3)s2)C1=O` [Example 64, (S)-2-(3-Chloro-5-fluorophenyl)-N-(1-methyl-2-oxopyrrolidin-3-yl)thiazole-5-carboxamide]: the IC50 was 10.2 to 100 nM.
Same read-out and setting: the value for `NC(=O)CN1CC[C@H](NC(=O)c2cnc(-c3cc(F)cc(F)c3)s2)C1=O` [Example 17, (S)-N-(1-(2-Amino-2-oxoethyl)-2-oxopyrrolidin-3-yl)-2-(3,5-difluorophenyl)thiazole-5-carboxamide] was 102 to 1000 nM.
Still for that read-out and setting: the same measure for `Cc1cc(-c2ncc(C(=O)N[C@H]3CCNC3=O)s2)cc(C(F)F)c1` [Example 48, (S)-2-(3-(Difluoromethyl)-5-methylphenyl)-N-(2-oxopyrrolidin-3-yl)thiazole-5-carboxamide]: 10.2 to 100 nM; for `C[C@H]1C[C@@H](NC(=O)c2cnc(-c3cc(F)cc(Cl)c3)s2)C(=O)N1` [Example 41, 2-(3-Chloro-5-fluorophenyl)-N-((3R,5S)-5-methyl-2-oxopyrrolidin-3-yl)thiazole-5-carboxamide]: 10.2 to 100 nM; for `Cc1nc(-c2cccc(Cl)c2)sc1C(=O)N[C@H]1CCNC1=O` [Example 30, (S)-2-(3-Chlorophenyl)-4-methyl-N-(2-oxopyrrolidin-3-yl)thiazole-5-carboxamide]: 10.2 to 100 nM.
Take `O=C(N[C@H]1CCNC1=O)c1cnc(-c2ccccc2)s1` [Example 33, (S)-N-(2-Oxopyrrolidin-3-yl)-2-phenylthiazole-5-carboxamide]: the IC50 is 10.2 to 100 nM.
On the same count and under the same terms, the value for `C[C@]1(NC(=O)c2cnc(-c3cc(F)cc(Cl)c3)s2)CCNC1=O` [Example 72, (S)-2-(3-Chloro-5-fluorophenyl)-N-(3-methyl-2-oxopyrrolidin-3-yl)thiazole-5-carboxamide] was 10.2 to 100 nM; that for `O=C(N[C@H]1CCNC1=O)c1cnc(-c2cccc(F)c2)s1` [Example 45, (S)-2-(3-Fluorophenyl)-N-(2-oxopyrrolidin-3-yl)thiazole-5-carboxamide] was 10.2 to 100 nM; that for `O=C(N[C@H]1CC2(COC2)NC1=O)c1cnc(-c2cc(F)cc(Cl)c2)s1` [Example 57, (S)-2-(3-Chloro-5-fluorophenyl)-N-(6-oxo-2-oxa-5-azaspiro[3.4]octan-7-yl)thiazole-5-carboxamide] was 1.02 to 10 nM.
`CC1(C)CC(NC(=O)c2cnc(-c3cc(F)cc(Cl)c3)s2)C(=O)N1` (racemic) [Example 14, Racemic 2-(3-Chloro-5-fluorophenyl)-N-(5,5-dimethyl-2-oxopyrrolidin-3-yl)thiazole-5-carboxamide]: the IC50 was 10.2 to 100 nM.
Still for that read-out and setting: the same measure for `C[C@@]1(NC(=O)c2cnc(-c3cc(F)cc(Cl)c3)s2)CCNC1=O` [Example 73, (R)-2-(3-Chloro-5-fluorophenyl)-N-(3-methyl-2-oxopyrrolidin-3-yl)thiazole-5-carboxamide]: 102 to 1000 nM; for `O=C(N[C@@H]1CC2(CCC2)NC1=O)c1cnc(-c2cc(F)cc(Cl)c2)s1` [Example 28, (R)-2-(3-Chloro-5-fluorophenyl)-N-(6-oxo-5-azaspiro[3.4]octan-7-yl)thiazole-5-carboxamide]: 102 to 1000 nM.
On the same count and under the same terms, the same measure for `CC1(C)CC(NC(=O)c2cnc(-c3cc(F)cc(Cl)c3)s2)C(=S)N1` (racemic) [Example 83, Racemic 2-(3-Chloro-5-fluorophenyl)-N-(5,5-dimethyl-2-thioxopyrrolidin-3-yl)thiazole-5-carboxamide]: 1.02 to 10 nM.
The same measure, in the same setting: the same measure for `COc1cccc(-c2ncc(C(=O)N[C@H]3CCNC3=O)s2)c1` [Example 68, (S)-2-(3-Methoxyphenyl)-N-(2-oxopyrrolidin-3-yl)thiazole-5-carboxamide]: 10.2 to 100 nM; for `O=C(N[C@H]1CCNC1=O)c1cnc(-c2ccncc2)s1` [Example 38, (S)-N-(2-Oxopyrrolidin-3-yl)-2-(pyridin-4-yl)thiazole-5-carboxamide]: 1020 to 10000 nM.
For `Cc1ccnc(-c2ncc(C(=O)N[C@H]3CCNC3=O)s2)c1` [Example 47, (S)-2-(4-Methylpyridin-2-yl)-N-(2-oxopyrrolidin-3-yl)thiazole-5-carboxamide], the IC50 is 10.2 to 100 nM.
The same measure, in the same setting: the same measure for `C[C@@H]1CNC(=O)[C@@H]1NC(=O)c1cnc(-c2cc(F)cc(Cl)c2)s1` [Example 76, 2-(3-Chloro-5-fluorophenyl)-N-((3R,4R)-4-methyl-2-oxopyrrolidin-3-yl)thiazole-5-carboxamide]: 1020 to 10000 nM; for `O=C(N[C@H]1CCNC1=O)c1cnc(-c2cccc(C(F)(F)F)c2)s1` [Example 4, (S)-N-(2-Oxopyrrolidin-3-v)-2-(3-(trifluoromethyl)phenyl)thiazole-5-carboxamide]: 10.2 to 100 nM.
Turning to `O=C(N[C@H]1CCNC1=O)c1cnc(-c2cc(Cl)ccc2F)s1` [Example 7, (S)-2-(5-Chloro-2-fluorophenyl)-N-(2-oxopyrrolidin-3-yl)thiazole-5-carboxamide], the IC50 was 10.2 to 100 nM.
Same read-out and setting: the value for `O=C(N[C@H]1CCNC1=O)c1cnc(-c2cccc(C(F)F)c2)s1` [Example 10, (S)-2-(3-(Difluoromethyl)phenyl)-N-(2-oxopyrrolidin-3-yl)thiazole-5-carboxamide] was 10.2 to 100 nM.
The same measure, in the same setting: the value for `CC1(C)CC(NC(=O)c2cnc(-c3cc(F)cc(Cl)c3)[se]2)C(=O)N1` (racemic) [Example 82, Racemic 2-(3-Chloro-5-fluorophenyl)-N-(5,5-dimethyl-2-oxopyrrolidin-3-yl)-1,3-selenazole-5-carboxamide] was 10.2 to 100 nM; that for `CCC1(CC)CNC(=O)C1NC(=O)c1cnc(-c2cc(F)cc(Cl)c2)s1` (racemic) [Example 23, Racemic 2-(3-Chloro-5-fluorophenyl)-N-(4,4-diethyl-2-oxopyrrolidin-3-yl)thiazole-5-carboxamide] was 102 to 1000 nM; that for `CCC1(CC)CNC(=O)[C@@H]1NC(=O)c1cnc(-c2cc(F)cc(Cl)c2)s1` [Example 24, (R)-2-(3-Chloro-5-fluorophenyl)-N-(4,4-diethyl-2-oxopyrrolidin-3-yl)thiazole-5-carboxamide] was 1020 to 10000 nM.
`O=C(N[C@@H]1C(=O)N[C@@H]2CCC[C@H]12)c1cnc(-c2cc(F)cc(Cl)c2)s1` [Example 60, 2-(3-Chloro-5-fluorophenyl)-N-((3S,3aS,6aR)-2-oxooctahydrocyclopenta[b]pyrrol-3-yl)thiazole-5-carboxamide]: the IC50 is 10.2 to 100 nM.
As to `O=C(N[C@H]1CCNC1=O)c1cnc(-c2ccccn2)s1` [Example 39, (S)-N-(2-Oxopyrrolidin-3-yl)-2-(pyridin-2-yl)thiazole-5-carboxamide], the IC50 was 102 to 1000 nM.
